In ChEMBL document CHEMBL1130335, “Comparative molecular field analysis of a series of paclitaxel analogues” (J Med Chem, 1997) one finds Activity data, which are given here for 37 compounds.

The assay can be described thus: Measured activity expressed as ID50 (analogue)/ID50 (paclitaxel), where ID50 is the concentration of compound leading to 50% inhibition of the rate microtubule disassembly. Type of assay: functional.
`CO[C@H]1CC2OC[C@@]2(OC(C)=O)[C@H]2[C@H](OC(=O)c3ccccc3)[C@]3(O)C[C@H](OC(=O)[C@H](O)[C@@H](NC(=O)c4ccccc4)c4ccccc4)C(C)=C([C@@H](OC(C)=O)[C@H](O)[C@]12C)C3(C)C` (some centres not stated): the Activity was found to be 0.92.
Regarding `CC(=O)O[C@H]1C(=O)[C@]2(C)[C@@H](O)CC3OC[C@@]3(OC(C)=O)[C@H]2[C@H](OC(=O)c2ccccc2)[C@]2(O)C[C@H](OC(=O)[C@H](O)[C@H](NC(=O)c3ccccc3)c3cccc4ccccc34)C(C)=C1C2(C)C` (some centres not stated), the Activity came to 7.1.
Then `CC(=O)O[C@@]12COC1C[C@H](O)[C@@]1(C)C(=O)[C@H](O)C3=C(C)[C@@H](OC(=O)[C@@H](O)[C@H](N)c4ccccc4)C[C@@](O)([C@@H](OC(=O)c4ccccc4)[C@@H]12)C3(C)C` (some centres not stated), with 30; and `CCOC(=O)N[C@@H](c1ccccc1)[C@@H](O)C(=O)O[C@H]1C[C@@]2(O)[C@@H](OC(=O)c3ccccc3)[C@H]3[C@@](C)([C@@H](O)CC4OC[C@]43OC(C)=O)[C@@H](O)[C@H](OC(C)=O)C(=C1C)C2(C)C` (some centres not stated), with 0.82.
Then `CC(=O)O[C@@H]1C2=C(C)[C@@H](OC(=O)[C@H](O)[C@@H](NC(=O)c3ccccc3)c3ccccc3)C[C@@](O)([C@@H](OC(=O)c3ccccc3)[C@H]3[C@@](C)([C@@H](O)CC4OC[C@]43OC(C)=O)[C@H]1O)C2(C)C` (some centres not stated), with 0.86; and `CC(=O)O[C@@]12COC1C[C@H](O)[C@@]1(C)C(=O)[C@H](O)C3=C(C)[C@@H](OC(=O)[C@H](O)[C@H](NC(=O)C4CCCC4)C(C)(C)C)C[C@@](O)([C@@H](OC(=O)c4ccccc4)[C@@H]12)C3(C)C` (some centres not stated), with 1.5.
Then `CC(=O)O[C@@]12COC1C[C@H](O)[C@@]1(C)C(=O)[C@H](O)C3=C(C)[C@@H](OC(=O)/C=C/c4ccccc4)C[C@@](O)([C@@H](OC(=O)c4ccccc4)[C@@H]12)C3(C)C` (some centres not stated), with 23.
Consider `CC(=O)O[C@@]12COC1C[C@H](O)[C@@]1(C)C(=O)[C@H](O)C3=C(C)[C@@H](OC(=O)[C@H](NC(=O)OC(C)(C)C)[C@H](O)c4ccccc4)C[C@@](O)([C@@H](OC(=O)c4ccccc4)[C@@H]12)C3(C)C` (some centres not stated), for which the Activity came out at 10.
Then `CC(=O)O[C@H]1C(=O)[C@]2(C)[C@@H](O)CC3OC[C@@]3(OC(C)=O)[C@H]2[C@H](OC(=O)c2ccccc2)[C@]2(O)C[C@H](OC(=O)[C@H](O)[C@H](NC(=O)c3ccccc3)c3ccco3)C(C)=C1C2(C)C` (some centres not stated), with 0.9; and `CC(=O)O[C@H]1C(=O)[C@]2(C)[C@@H](O)CC3OC[C@@]3(OC(C)=O)[C@H]2[C@H](OC(=O)c2ccccc2)[C@]2(O)C[C@H](OC(=O)[C@H](O)[C@H](NC(=O)c3ccco3)c3ccccc3)C(C)=C1C2(C)C` (some centres not stated), with 0.8.
Consider `CC(=O)O[C@H]1C(=O)[C@]2(C)[C@@H](O)CC3OC[C@@]3(OC(C)=O)[C@H]2[C@H](OC(=O)c2ccccc2)[C@]2(O)C[C@H](OC(=O)[C@H](O)[C@H](NC(=O)OC(C)(C)C)c3ccccc3)C(C)=C1C2(C)C` (some centres not stated), for which the Activity was 0.5.
Then `CC(=O)O[C@H]1C(=O)[C@]2(C)[C@@H](O)CC3OC[C@@]3(OC(C)=O)[C@H]2[C@H](OC(=O)c2ccccc2)[C@]2(O)C[C@H](OC(=O)C(O)C(C)O)C(C)=C1C2(C)C` (some centres not stated), with 60; and `CC(=O)O[C@H]1C(=O)[C@]2(C)[C@@H](O)CC3OC[C@@]3(OC(C)=O)[C@H]2[C@H](OC(=O)c2ccccc2)[C@]2(O)C[C@H](OC(=O)[C@@H](NC(=O)c3ccccc3)[C@@H](O)c3ccccc3)C(C)=C1C2(C)C` (some centres not stated), with 110; and `CC(=O)O[C@@]12COC1C[C@H](O)[C@@]1(C)C(=O)C[C@@]34O[C@]3(C)[C@@H](OC(=O)[C@H](O)[C@@H](NC(=O)c3ccccc3)c3ccccc3)C[C@@](O)([C@@H](OC(=O)c3ccccc3)[C@@H]12)C4(C)C` (some centres not stated), with 0.66.
Then `CC(=O)O[C@H]1C(=O)[C@]2(C)[C@@H](O)CC3OC[C@@]3(OC(C)=O)[C@H]2[C@H](OC(=O)c2ccccc2)[C@]2(O)C[C@H](OC(=O)[C@H](O)[C@H](NC(=O)c3ccccc3)c3ccccn3)C(C)=C1C2(C)C` (some centres not stated), with 0.7.
`CC(=O)O[C@@H]1C2=C(C)[C@@H](OC(=O)[C@H](O)[C@@H](NC(=O)OC(C)(C)C)[C@H]3COC(C)(C)O3)C[C@@](O)([C@@H](OC(=O)c3ccccc3)[C@H]3[C@@](C)([C@@H](O)CC4OC[C@]43OC(C)=O)[C@H]1O)C2(C)C` (some centres not stated) registered an Activity of 7.91.
Then `CC(=O)O[C@H]1C(=O)[C@]2(C)[C@@H](O)CC3OC[C@@]3(OC(C)=O)[C@H]2[C@H](OC(=O)c2ccccc2)[C@]2(O)C[C@H](OC(=O)[C@H](O)[C@H](NC(=O)c3ccc(C(F)(F)F)cc3)c3ccccc3)C(C)=C1C2(C)C` (some centres not stated), with 6.
`CC(=O)O[C@@]12COC1C[C@H](O)[C@@]1(C)C(=O)[C@H](O)C3=C(C)[C@@H](OC(=O)[C@H](NC(=O)c4ccccc4)[C@H](O)c4ccccc4)C[C@@](O)([C@@H](OC(=O)c4ccccc4)[C@@H]12)C3(C)C` (some centres not stated) registered an Activity of 10.
The value for `CC(=O)O[C@H]1C(=O)[C@]2(C)[C@@H](O)CC3OC[C@@]3(OC(C)=O)[C@H]2[C@H](OC(=O)C2CCCCC2)[C@]2(O)C[C@H](OC(=O)[C@H](O)[C@@H](NC(=O)C3CCCCC3)C3CCCCC3)C(C)=C1C2(C)C` (some centres not stated) was 0.47; that for `CC(=O)O[C@@]12COC1C[C@H](O)[C@@]1(C)C(=O)[C@H](O)C3=C(C)[C@@H](OC(=O)[C@@H](NC(=O)OC(C)(C)C)[C@@H](O)c4ccccc4)C[C@@](O)([C@@H](OC(=O)c4ccccc4)[C@@H]12)C3(C)C` (some centres not stated) was 160; that for `CC(=O)O[C@H]1C(=O)[C@]2(C)[C@@H](O)CC3OC[C@@]3(OC(C)=O)[C@H]2[C@H](OC(=O)c2ccccc2)[C@]2(O)C[C@H](OC(=O)[C@H](NC(=O)OC(C)(C)C)[C@H](O)c3ccccc3)C(C)=C1C2(C)C` (some centres not stated) was 10.
The value for `C/C=C/C(=O)O[C@H]1C[C@@]2(O)[C@@H](OC(=O)c3ccccc3)[C@H]3[C@](C)(C(=O)[C@H](OC(C)=O)C(=C1C)C2(C)C)[C@@H](O)CC1OC[C@]13OC(C)=O` (some centres not stated) was 100.
The value for `CC(=O)O[C@H]1C(=O)[C@]2(C)[C@@H](O)CC3OC[C@@]3(OC(C)=O)[C@H]2[C@H](OC(=O)c2ccccc2)[C@]2(O)C[C@H](OC(=O)[C@H](O)[C@@H](NC(=O)c3ccccc3)C3CCCCC3)C(C)=C1C2(C)C` (some centres not stated) was 0.29; that for `CC(=O)O[C@@H]1C2=C(C)[C@@H](OC(=O)[C@H](O)[C@H](COc3ccccc3)NC(=O)c3ccccc3)C[C@@](O)([C@@H](OC(=O)c3ccccc3)[C@H]3[C@@](C)([C@@H](O)CC4OC[C@]43OC(C)=O)[C@H]1O)C2(C)C` (some centres not stated) was 5.81; that for `CC(=O)O[C@@H]1C2=C(C)[C@@H](OC(=O)[C@H](O)[C@H](C)NC(=O)OC(C)(C)C)C[C@@](O)([C@@H](OC(=O)c3ccccc3)[C@H]3[C@@](C)([C@@H](O)CC4OC[C@]43OC(C)=O)[C@H]1O)C2(C)C` (some centres not stated) was 1.08.
Regarding `CC(=O)O[C@@]12COC1C[C@H](O)[C@@]1(C)C(=O)[C@H](O)C3=C(C)[C@@H](OC(=O)[C@H](O)[C@@H](CC(C)(C)C)NC(=O)OC(C)(C)C)C[C@@](O)([C@@H](OC(=O)c4ccccc4)[C@@H]12)C3(C)C` (some centres not stated), the Activity stood at 1.45.
In the case of `CC(=O)O[C@@]12COC1C[C@H](O)[C@@]1(C)C(=O)[C@H](O)C3=C(C)[C@@H](OC(=O)[C@H](O)[C@@H](CC(C)C)NC(=O)OC(C)(C)C)C[C@@](O)([C@@H](OC(=O)c4ccccc4)[C@@H]12)C3(C)C` (some centres not stated), the Activity turned out to be 0.78.
Then `CC(=O)O[C@H]1C(=O)[C@]2(C)[C@@H](O)CC3OC[C@@]3(OC(C)=O)[C@H]2[C@H](OC(=O)c2ccccc2)[C@]2(O)C[C@H](OC(=O)[C@H](O)[C@H](NC(=O)c3ccccc3)c3ccc(Cl)cc3)C(C)=C1C2(C)C` (some centres not stated), with 2.4; and `CCCCOC(=O)N[C@H](c1ccccc1)[C@@H](O)C(=O)O[C@H]1C[C@@]2(O)[C@@H](OC(=O)c3ccccc3)[C@H]3[C@](C)(C(=O)[C@H](OC(C)=O)C(=C1C)C2(C)C)[C@@H](O)CC1OC[C@]13OC(C)=O` (some centres not stated), with 0.8; and `COC[C@H](NC(=O)c1ccccc1)[C@@H](O)C(=O)O[C@H]1C[C@@]2(O)[C@@H](OC(=O)c3ccccc3)[C@H]3[C@@](C)([C@@H](O)CC4OC[C@]43OC(C)=O)[C@@H](O)[C@H](OC(C)=O)C(=C1C)C2(C)C` (some centres not stated), with 3.14.
Then `CC(=O)O[C@H]1C(=O)[C@]2(C)[C@@H](O)CC3OC[C@@]3(OC(C)=O)[C@H]2[C@H](OC(=O)c2ccccc2)[C@]2(O)C[C@H](OC(=O)[C@H](NC(=O)c3ccccc3)[C@H](O)c3ccccc3)C(C)=C1C2(C)C` (some centres not stated), with 10; and `CC(=O)O[C@H]1C(=O)[C@]2(C)[C@@H](O)CC3OC[C@@]3(OC(C)=O)[C@H]2[C@H](OC(=O)c2ccccc2)[C@]2(O)C[C@H](OC(=O)[C@H](O)[C@H](NC(=O)c3ccccc3)c3ccc(Cl)c(Cl)c3)C(C)=C1C2(C)C` (some centres not stated), with 7.1; and `CC(=O)O[C@H]1C(=O)[C@]2(C)[C@@H](O)CC3OC[C@@]3(OC(C)=O)[C@H]2[C@H](OC(=O)c2ccccc2)[C@]2(O)C[C@H](OC(=O)[C@H](O)[C@H](NC(=O)C(C)(C)C)c3ccccc3)C(C)=C1C2(C)C` (some centres not stated), with 2.6.
Then `COc1ccc(C(=O)N[C@H](c2ccccc2)[C@@H](O)C(=O)O[C@H]2C[C@@]3(O)[C@@H](OC(=O)c4ccccc4)[C@H]4[C@](C)(C(=O)[C@H](OC(C)=O)C(=C2C)C3(C)C)[C@@H](O)CC2OC[C@]24OC(C)=O)cc1` (some centres not stated), with 0.5.
The compound `CC(=O)O[C@@H]1C2=C(C)[C@@H](OC(=O)[C@H](O)[C@@H](NC(=O)OC(C)(C)C)c3ccccc3)C[C@@](O)([C@@H](OC(=O)c3ccccc3)[C@H]3[C@@](C)([C@@H](O)CC4OC[C@]43OC(C)=O)[C@H]1O)C2(C)C` (some centres not stated) registered an Activity of 0.87.
`CC(=O)O[C@@]12COC1C[C@H](O)[C@@]1(C)C(=O)[C@H](O)C3=C(C)[C@@H](OC(=O)[C@H](O)[C@@H](NC(=O)OC(C)(C)C)c4ccccc4)[C@@H]4OC(C)(C)O[C@]4([C@@H](OC(=O)c4ccccc4)[C@@H]12)C3(C)C` (some centres not stated) showed an Activity of 3.
Then `CC(=O)O[C@H]1C(=O)[C@]2(C)[C@@H](O)CC3OC[C@@]3(OC(C)=O)[C@H]2[C@H](OC(=O)c2ccccc2)[C@]2(O)C[C@H](OC(=O)[C@H](O)[C@H](NC(=O)c3ccc(C)cc3)c3ccccc3)C(C)=C1C2(C)C` (some centres not stated), with 1.1.
